How the values were obtained:
Experiment in all cases: -log10 GI50 (growth inhibition 50%) (-log10(M)); higher = more potent growth inhibition
[1] = system: BT483
How it was run: (§1)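 Breast cancer cell lines were exposed to each compound for 72 hours at nine doses in 1:5 serial dilution, in triplicate, with a luminescence read-out against a time-zero plate. A Gompertz curve was fitted to the dose-response data by nonlinear least squares. The value is minus log10 of GI50, the molar concentration giving the set level of growth inhibition. Values equal to the top dose carry a < qualifier.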

[2] = system: HBL100
How it was run: as §1

[3] = system: HCC1395
How it was run: as §1

[4] = system: HCC1419
How it was run: as §1

[5] = system: HCC202
How it was run: as §1

[6] = system: MCF10F
How it was run: as §1

[7] = system: MDAMB436
How it was run: as §1

[8] = system: MDAMB453
How it was run: as §1

[9] = system: MDAMB468
How it was run: as §1

[10] = system: S1
How it was run: as §1

[11] = system: SUM149PT
How it was run: as §1

[12] = system: SUM229PE
How it was run: as §1

[13] = system: T4
How it was run: as §1

[14] = system: UACC812
How it was run: as §1

[15] = system: UACC893
How it was run: as §1

[16] = system: ZR7530
How it was run: as §1

[17] = system: SUM102PT
How it was run: as §1

[18] = system: T47D_KBluc
How it was run: as §1

Row | -log10 GI50 [1] | -log10 GI50 [3] | -log10 GI50 [4] | -log10 GI50 [5] | -log10 GI50 [7] | -log10 GI50 [8] | -log10 GI50 [9] | -log10 GI50 [18] | Structure (SMILES) | -log10 GI50 [2] | -log10 GI50 [6] | -log10 GI50 [10] | -log10 GI50 [11] | -log10 GI50 [12] | -log10 GI50 [13] | -log10 GI50 [14] | -log10 GI50 [15] | -log10 GI50 [16] | -log10 GI50 [17]
1 | < 4.78 | 6.71 | 7.23 | 6.28 | 4.81 | 6.64 | 4.84 | – | CC(=O)Nc1cccc(-n2c(=O)n(C3CC3)c(=O)c3c(Nc4ccc(I)cc4F)n(C)c(=O)c(C)c32)c1 | < 4.78 | 8.06 | 8.31 | 7.64 | 8.17 | 9 | < 4.78 | 5.77 | < 4.78 | –
2 | 3.27 | 4.09 | 4.85 | 4.75 | 3.43 | 4.26 | – | – | CCNCCCNC/C=C\CNCCCNCC | 2.94 | 3.76 | 5.46 | 4.55 | 4.33 | 4.76 | 3.47 | 3.63 | < 2.3 | 5.98
3 | 5.35 | 5.27 | 5.18 | 6.03 | 7.19 | 5.54 | 7.89 | – | CCn1cc(-c2ccnc3[nH]c(-c4cccc(CN(C)C)c4)cc23)c(-c2ccc(NC(=O)N(C)C)cc2)n1 | 7.15 | 5.69 | 6.36 | 5.55 | 6.33 | 6.63 | 5.07 | 5.06 | – | 5.52
4 | 5.49 | 5.33 | 5.19 | 5.05 | – | 4.96 | – | 5.13 | CNC(=O)c1c(F)cccc1Nc1nc(Nc2cc3c(cc2OC)CCN3C(=O)CN(C)C)nc2[nH]ccc12 | 4.76 | 6.31 | – | 5.41 | 6.2 | – | 5.31 | – | – | –
5 | 6.8 | 5.61 | 6.59 | 7.31 | 6.09 | 6.52 | 6.03 | – | O=C1NC(=O)/C(=C/c2ccc3nccc(-c4ccncc4)c3c2)S1 | 5.42 | 6.71 | 7.04 | 6.01 | 6.26 | 7.31 | 6.62 | 7.24 | 6.82 | –
6 | 6.68 | 6.54 | 7.41 | 8.27 | 5.96 | 7.36 | 5.64 | – | C=CCNC1=C2C[C@@H](C)C[C@H](OC)[C@H](O)[C@@H](C)/C=C(\C)[C@H](OC(N)=O)[C@@H](OC)/C=C\C=C(/C)C(=O)NC(=CC1=O)C2=O [17-AAG] | 5.97 | 7.5 | 6.89 | 7.01 | 7.56 | – | 7.96 | 7.77 | – | –
7 | < 3.78 | 4.15 | 5.92 | 5.75 | 4.09 | < 3.78 | < 3.78 | – | COc1cc2ncnc(Nc3cccc(Cl)c3)c2cc1OC [AG1478] | < 3.78 | 6.69 | 7.25 | 5.93 | < 3.78 | – | – | 6.39 | – | –
8 | 5.22 | 6 | 4.62 | 4.32 | 5.18 | 5.19 | 4.49 | – | CCc1c2c(nc3ccc(OC(=O)N4CCC(N5CCCCC5)CC4)cc13)-c1cc3c(c(=O)n1C2)COC(=O)[C@]3(O)CC [CPT-11] | 5.5 | 5.18 | < 4.13 | – | 5.16 | 5.23 | 5.49 | 4.22 | < 4.13 | –
9 | 5.82 | 5 | 4.02 | 4.44 | 4.29 | 4.27 | 4.32 | – | O=C(O)C1(C(=O)O)CCC1.[NH2-].[NH2-].[Pt+2] [Carboplatin] | 4.15 | 4.41 | 4.48 | 4.82 | 4.27 | 4.08 | 4.76 | 3.04 | 4.55 | –
10 | 7.65 | 8.24 | 7.8 | 8.63 | 8.07 | 8.32 | 8.64 | 7.93 | CC(=O)O[C@@]12CO[C@@H]1C[C@H](O)[C@@]1(C)C(=O)[C@H](O)C3=C(C)[C@@H](OC(=O)[C@H](O)[C@@H](NC(=O)OC(C)(C)C)c4ccccc4)C[C@@](O)([C@@H](OC(=O)c4ccccc4)[C@H]21)C3(C)C [Docetaxel] | 8.75 | 8.59 | 8.33 | 8.76 | 7.94 | 8.77 | 8.39 | 7.77 | 8.4 | –
11 | 7 | 6.6 | 6.33 | 6.61 | 6.29 | 6.67 | 6.13 | – | COc1cccc2c1C(=O)c1c(O)c3c(c(O)c1C2=O)C[C@@](O)(C(=O)CO)C[C@@H]3O[C@H]1C[C@H](N)[C@H](O)[C@H](C)O1 [Doxorubicin] | 7.37 | 6.64 | 6.09 | – | 6.72 | 6.9 | 7.12 | 6.14 | 6.96 | 6.61
12 | 4.78 | 4.53 | 5.2 | 5.57 | – | 4.77 | – | < 4.18 | C#Cc1cccc(Nc2ncnc3cc(OCCOC)c(OCCOC)cc23)c1 [Erlotinib] | < 4.18 | 6.54 | – | 5.7 | 4.95 | – | 4.91 | – | – | –
13 | 4.48 | 3.18 | 3.77 | 4.77 | 2.97 | 4.02 | 3.62 | – | O=c1[nH]cc(F)c(=O)[nH]1 [Fluorouracil] | 4.15 | 5.37 | 3.9 | 4.14 | 4.08 | – | 4.34 | 3.45 | – | –
14 | 5.21 | 5.17 | 5.5 | 6.45 | < 4.48 | 5.13 | 4.72 | – | COc1cc2ncnc(Nc3ccc(F)c(Cl)c3)c2cc1OCCCN1CCOCC1 [Gefitinib] | 4.94 | 6.16 | 6.57 | 5.62 | 5.21 | – | 6.04 | 5.94 | – | 5.73
15 | – | 6.47 | 4.81 | 4.82 | 7.49 | – | 7.01 | – | Nc1ccn([C@@H]2O[C@H](CO)[C@@H](O)C2(F)F)c(=O)n1 [Gemcitabine] | 7.64 | 7.08 | 7.04 | 7.84 | 7.3 | – | 7.75 | 3.54 | – | –
16 | 3.82 | 4.77 | 4.74 | 5.81 | – | 4.95 | – | 4.67 | Cc1ccc(NC(=O)c2ccc(CN3CCN(C)CC3)cc2)cc1Nc1nccc(-c2cccnc2)n1 [Imatinib] | 4.62 | 4.71 | – | 4.67 | 5.27 | – | 4.98 | – | – | –
17 | 5.19 | 4.65 | < 4.18 | 5.02 | – | 4.25 | – | 4.5 | COc1ccc(C2=N[C@@H](c3ccc(Cl)cc3)[C@@H](c3ccc(Cl)cc3)N2C(=O)N2CCNC(=O)C2)c(OC(C)C)c1 [Nutlin 3a] | 4.32 | 5.18 | – | 4.56 | 4.63 | – | 5.45 | – | – | –
18 | 4.56 | – | – | 5.27 | 4.46 | 5.19 | – | – | O=C(O)C(=O)O.[NH-][C@@H]1CCCC[C@H]1[NH-].[Pt+2] [Oxaliplatin] | 5.65 | 5.35 | 4.68 | 5.83 | 5.72 | 5.21 | 5.85 | 3.83 | < 3.2 | –
19 | 7 | 7.71 | 7.04 | 8.1 | 7.65 | 7.99 | 8.06 | 7.84 | CC(=O)O[C@H]1C(=O)[C@@]2(C)[C@H]([C@H](OC(=O)c3ccccc3)[C@]3(O)C[C@H](OC(=O)[C@H](O)[C@@H](NC(=O)c4ccccc4)c4ccccc4)C(C)=C1C3(C)C)[C@]1(OC(C)=O)CO[C@@H]1C[C@@H]2O [Paclitaxel] | 8.35 | 8.08 | 7.84 | 8.03 | 7.72 | 8.04 | 8.08 | 7.93 | 7.66 | –
20 | 8.78 | 4.84 | 8.36 | 8.24 | 3.85 | 7.31 | 4.75 | 5.65 | CO[C@H]1C[C@@H]2CC[C@@H](C)[C@@](O)(O2)C(=O)C(=O)N2CCCC[C@H]2C(=O)O[C@H]([C@H](C)C[C@@H]2CC[C@@H](O)[C@H](OC)C2)CC(=O)[C@H](C)/C=C(\C)[C@@H](O)[C@@H](OC)C(=O)[C@H](C)C[C@H](C)/C=C/C=C/C=C/1C [Rapamycin] | 4.24 | 5.44 | – | 5.03 | 4.86 | – | 7.33 | < 3.78 | – | –
21 | 5.47 | 4.37 | < 3.78 | 4.55 | 4.51 | 4.47 | – | – | CC/C(=C(\c1ccccc1)c1ccc(OCCN(C)C)cc1)c1ccccc1 [Tamoxifen] | 4.32 | < 3.78 | 5.84 | 4.11 | 5.62 | – | – | 4.72 | – | –
22 | 7.38 | 7.82 | 6.45 | 6.08 | 7.65 | 7.07 | 7.66 | – | CC[C@@]1(O)C(=O)OCc2c1cc1n(c2=O)Cc2cc3c(CN(C)C)c(O)ccc3nc2-1 [Topotecan] | 7.87 | 6.67 | 4.63 | – | 7.2 | – | 7.3 | 6.59 | – | 6.12
23 | 8.14 | 8.45 | 6.45 | 7.89 | 7.57 | 8.8 | 8.01 | – | CCC1=C[C@@H]2CN(C1)Cc1c([nH]c3ccccc13)[C@@](C(=O)OC)(c1cc3c(cc1OC)N(C)[C@H]1[C@@](O)(C(=O)OC)[C@H](OC(C)=O)[C@]4(CC)C=CCN5CC[C@]31[C@@H]54)C2 [Vinorelbine] | 8.02 | 7.75 | 8.34 | 7.85 | 8.68 | – | 7.13 | 7.96 | – | –

Source: the supplement of paper PMC3937590
